Experimental data from patent US9624170B2, “4-(piperrazin-1-yl)-pyrrolidin-2-one compounds as monoacylglycerol lipase (MAGL) inhibitors” (TAKEDA PHARMACEUTICAL COMPANY LIMITED, priority 2013, dated 2017).

biological target: T1, human MAGL (His-hMAGL) (Homo sapiens, UniProt Q99685); assay: Measurement of MAGL inhibitory activity by mass spectrometry; type: biochemical; settings: MAGL inhibitory rate, test compound 10 μM, His-hMAGL, substrate 2-arachidonylglycerol, RapidFire-mass spectrometry
T1 construct: made in house; host or cells: Escherichia coli BL21(DE3)
T1 sequence (Q99685 1-303): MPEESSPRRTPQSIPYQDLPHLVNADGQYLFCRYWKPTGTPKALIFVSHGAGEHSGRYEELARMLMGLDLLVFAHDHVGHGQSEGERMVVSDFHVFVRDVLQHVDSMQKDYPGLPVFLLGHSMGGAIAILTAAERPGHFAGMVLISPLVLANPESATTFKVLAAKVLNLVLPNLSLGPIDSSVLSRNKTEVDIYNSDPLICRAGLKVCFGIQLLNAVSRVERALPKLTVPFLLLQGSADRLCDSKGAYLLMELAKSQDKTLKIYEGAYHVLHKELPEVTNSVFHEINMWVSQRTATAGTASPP
How it was run: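 His-tagged human MAGL was reacted with 150 μM 2-arachidonylglycerol substrate (stock, added by 5 μL) for 10 min at room temperature, then stopped with formic acid. Arachidonic acid product was quantified by RapidFire–triple-quadrupole MS in negative SRM mode, corrected by arachidonic acid-d8, and converted to percent inhibition.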

Row | inhibition at 10 µM [%] | Structure (SMILES)
1 | 100 | O=C(c1nccs1)N1CCN(C2CC(=O)N(c3ccc(-c4ccccc4)cc3)C2)CC1 (stereo not shown) [Example 213, 1-(biphenyl-4-yl)-4-(4-(1,3-thiazol-2-ylcarbonyl)piperazin-1-yl)pyrrolidin-2-one]
2 | 93 | NC(=O)Cc1cccc(-c2ccc(N3CC(N4CCN(C(=O)c5nccs5)CC4)CC3=O)cc2)c1 (stereo not shown) [Example 214, 2-(4′-(2-oxo-4-(4-(1,3-thiazol-2-ylcarbonyl)piperazin-1-yl)pyrrolidin-1-yl)biphenyl-3-yl)acetamide]
3 | 101 | O=C(c1nccs1)N1CCN(C2CC(=O)N(c3ccc(-c4ccccc4C(F)(F)F)cc3)C2)CC1 (stereo not shown) [Example 215, 4-(4-(1,3-thiazol-2-ylcarbonyl)piperazin-1-yl)-1-(2′-(trifluoromethyl)biphenyl-4-yl)pyrrolidin-2-one]
4 | 97 | CS(=O)(=O)Nc1cccc(-c2ccc(N3CC(N4CCN(C(=O)c5nccs5)CC4)CC3=O)cc2)c1 (stereo not shown) [Example 216, N-(4′-(2-oxo-4-(4-(1,3-thiazol-2-ylcarbonyl)piperazin-1-yl)pyrrolidin-1-yl)biphenyl-3-yl)methanesulfonamide]
5 | 98 | O=C(c1nccs1)N1CCN(C2CC(=O)N(c3ccc(-c4ccsc4)cc3)C2)CC1 (stereo not shown) [Example 217, 4-(4-(1,3-thiazol-2-ylcarbonyl)piperazin-1-yl)-1-(4-(3-thienyl)phenyl)pyrrolidin-2-one]
6 | 99 | O=C(c1nccs1)N1CCN(C2CC(=O)N(c3ccc(-c4cccs4)cc3)C2)CC1 (stereo not shown) [Example 218, 4-(4-(1,3-thiazol-2-ylcarbonyl)piperazin-1-yl)-1-(4-(2-thienyl)phenyl)pyrrolidin-2-one]
7 | 102 | Cc1ccc(-c2ccc(N3CC(N4CCN(C(=O)c5nccs5)CC4)CC3=O)cc2)cc1 (stereo not shown) [Example 219, 1-(4′-methylbiphenyl-4-yl)-4-(4-(1,3-thiazol-2-ylcarbonyl)piperazin-1-yl)pyrrolidin-2-one]
8 | 103 | Cc1ccccc1-c1cccc(N2CC(N3CCN(C(=O)c4cscn4)CC3)CC2=O)c1 (stereo not shown) [Example 220, 1-(2′-methylbiphenyl-3-yl)-4-(4-(1,3-thiazol-4-ylcarbonyl)piperazin-1-yl)pyrrolidin-2-one]
9 | 101 | Cc1ccccc1-c1cccc(N2CC(N3CCN(C(=O)c4ncco4)CC3)CC2=O)c1 (stereo not shown) [Example 221, 1-(2′-methylbiphenyl-3-yl)-4-(4-(1,3-oxazol-2-ylcarbonyl)piperazin-1-yl)pyrrolidin-2-one]
10 | 98 | O=C1Cc2cccc(-c3cccc(N4CC(N5CCN(C(=O)c6nccs6)CC5)CC4=O)c3)c2N1 (stereo not shown) [Example 222, 7-(3-(2-oxo-4-(4-(1,3-thiazol-2-ylcarbonyl)piperazin-1-yl)pyrrolidin-1-yl)phenyl)-1,3-dihydro-2H-indol-2-one]
11 | 101 | O=C(c1cscn1)N1CCN(C2CC(=O)N(c3cccc(-c4cccnc4Cl)c3)C2)CC1 (stereo not shown) [Example 223, 1-(3-(2-chloropyridin-3-yl)phenyl)-4-(4-(1,3-thiazol-4-ylcarbonyl)piperazin-1-yl)pyrrolidin-2-one]
12 | 100 | O=C(c1ncco1)N1CCN(C2CC(=O)N(c3cccc(-c4cccnc4Cl)c3)C2)CC1 (stereo not shown) [Example 224, 1-(3-(2-chloropyridin-3-yl)phenyl)-4-(4-(1,3-oxazol-2-ylcarbonyl)piperazin-1-yl)pyrrolidin-2-one]
13 | 96 | CC1C(N2CCN(C(=O)c3nccs3)CC2)CC(=O)N1c1ccc(Oc2ccccc2)cc1 (stereo not shown) [Example 228, 5-Methyl-1-(4-phenoxyphenyl)-4-(4-(1,3-thiazol-2-ylcarbonyl)piperazin-1-yl)pyrrolidin-2-one]
14 | 100 | CN1C(=O)Cc2cccc(-c3cccc(N4CC(N5CCN(C(=O)c6nccs6)CC5)CC4=O)c3)c21 (stereo not shown) [Example 229, 1-methyl-7-(3-(2-oxo-4-(4-(1,3-thiazol-2-ylcarbonyl)piperazin-1-yl)pyrrolidin-1-yl)phenyl)-1,3-dihydro-2H-indol-2-one]
15 | 101 | CN1C(=O)Cc2c(-c3cccc(N4CC(N5CCN(C(=O)c6nccs6)CC5)CC4=O)c3)cccc21 (stereo not shown) [Example 230, 1-methyl-4-(3-(2-oxo-4-(4-(1,3-thiazol-2-ylcarbonyl)piperazin-1-yl)pyrrolidin-1-yl)phenyl)-1,3-dihydro-2H-indol-2-one]
16 | 100 | CC1(C)C(=O)Nc2cccc(-c3cccc(N4CC(N5CCN(C(=O)c6nccs6)CC5)CC4=O)c3)c21 (stereo not shown) [Example 231, 3,3-dimethyl-4-(3-(2-oxo-4-(4-(1,3-thiazol-2-ylcarbonyl)piperazin-1-yl)pyrrolidin-1-yl)phenyl)-1,3-dihydro-2H-indol-2-one]
17 | 99 | O=C(c1cscn1)N1CCN(C2CC(=O)N(c3cccc(-c4ccccc4Cl)c3)C2)CC1 (stereo not drawn) [Example 232, 1-(2′-Chlorobiphenyl-3-yl)-4-(4-(1,3-thiazol-4-ylcarbonyl)piperazin-1-yl)pyrrolidin-2-one (optical isomer)]
18 | 98 | O=C(c1nccs1)N1CCN([C@@H]2CC(=O)N(c3ccc4c(ccn4-c4ccc(C(F)(F)F)nn4)c3)C2)CC1 [Example 234, (4R)-4-(4-(1,3-thiazol-2-ylcarbonyl)piperazin-1-yl)-1-(1-(6-(trifluoromethyl)pyridazin-3-yl)-1H-indol-5-yl)pyrrolidin-2-one]
19 | 100 | Cc1ccc(-n2ccc3cc(N4CC(N5CCN(C(=O)c6nccs6)CC5)CC4=O)ccc32)cc1 (stereo not shown) [Example 235, 1-(1-(4-methylphenyl)-1H-indol-5-yl)-4-(4-(1,3-thiazol-2-ylcarbonyl)piperazin-1-yl)pyrrolidin-2-one]
20 | 100 | Cc1cccc(-n2ccc3cc(N4CC(N5CCN(C(=O)c6nccs6)CC5)CC4=O)ccc32)n1 (stereo not shown) [Example 238, 1-(1-(6-methylpyridin-2-yl)-1H-indol-5-yl)-4-(4-(1,3-thiazol-2-ylcarbonyl)piperazin-1-yl)pyrrolidin-2-one]
21 | 100 | Cc1ccc(-n2ccc3cc(N4CC(N5CCN(C(=O)c6nccs6)CC5)CC4=O)ccc32)nc1 (stereo not shown) [Example 239, 1-(1-(5-methylpyridin-2-yl)-1H-indol-5-yl)-4-(4-(1,3-thiazol-2-ylcarbonyl)piperazin-1-yl)pyrrolidin-2-one]
22 | 99 | Cc1cc(-c2ccccc2)cc(N2CC(N3CCN(C(=O)c4nccs4)CC3)CC2=O)c1 (stereo not shown) [Example 240, 1-(5-methylbiphenyl-3-yl)-4-(4-(1,3-thiazol-2-ylcarbonyl)piperazin-1-yl)pyrrolidin-2-one]
23 | 96 | O=C(c1nccs1)N1CCN(C2CC(=O)N(c3cc(-c4ccccc4)ccc3F)C2)CC1 (stereo not shown) [Example 241, 1-(4-fluorobiphenyl-3-yl)-4-(4-(1,3-thiazol-2-ylcarbonyl)piperazin-1-yl)pyrrolidin-2-one]
24 | 99 | O=C(c1nccs1)N1CCN(C2CC(=O)N(c3cc(F)cc(-c4ccccc4)c3)C2)CC1 (stereo not shown) [Example 242, 1-(5-fluorobiphenyl-3-yl)-4-(4-(1,3-thiazol-2-ylcarbonyl)piperazin-1-yl)pyrrolidin-2-one]
25 | 100 | O=C(c1nccs1)N1CCN(C2CC(=O)N(c3ccc(F)c(-c4ccccc4)c3)C2)CC1 (stereo not shown) [Example 243, 1-(6-fluorobiphenyl-3-yl)-4-(4-(1,3-thiazol-2-ylcarbonyl)piperazin-1-yl)pyrrolidin-2-one]
